Source: patent US20100298141A1, “SUBSTITUTED PYRIDINE N-OXIDE HERBICIDES” (E. I. DU PONT DE NEMOURS AND COMPANY, priority 2007, published 2010)

What was measured:
duck salad = assay: Test C flooded paddy test; format: in vivo, Heteranthera limosa; conditions: Flood
Excerpt: (§1) At time of treatment, test pots were flooded to 3 cm above the soil surface, treated by application of test compounds directly to the paddy water, and then maintained at that water depth for the duration of the test. Treated plants and controls were maintained in a greenhouse for 13 to 15 days, after which time all species were compared to controls and visually evaluated. […] A dash (-) response means no test result.

rice = assay: Test C flooded paddy test; format: in vivo, Oryza sativa; conditions: Flood
Excerpt: as §1

giant foxtail = assay: Test A pre-/postemergence greenhouse test; format: in vivo, Setaria faberi; conditions: for Plant response rating, Foxtail, Giant: 0 to 100 scale where 0 is no effect and 100 is complete control; for Foxtail, Giant plant response rating: 0 to 100 scale
Outline: (§2)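 Visual injury ratings, made relative to untreated controls roughly ten days after treatment, cover both preemergence and postemergence application. Compounds in a surfactant-containing non-phytotoxic solvent were sprayed onto the soil surface after sowing and, simultaneously, onto young plants at the one- to two-leaf stage.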

wheat = assay: Test A pre-/postemergence greenhouse test; format: in vivo, Triticum aestivum; conditions: for Plant response rating, Wheat: 0 to 100 scale where 0 is no effect and 100 is complete control; for Wheat plant response rating: 0 to 100 scale
Outline: as §2

velvetleaf = assay: Test A pre-/postemergence greenhouse test; format: in vivo, Abutilon theophrasti; conditions: for Plant response rating, Velvetleaf: 0 to 100 scale where 0 is no effect and 100 is complete control; for Velvetleaf plant response rating: 0 to 100 scale
Outline: as §2

redroot pigweed = assay: Test A pre-/postemergence greenhouse test; format: in vivo, Amaranthus retroflexus; conditions: for Plant response rating, Pigweed: 0 to 100 scale where 0 is no effect and 100 is complete control; for Pigweed plant response rating: 0 to 100 scale
Outline: as §2

umbrella sedge = assay: Test C flooded paddy test; format: in vivo, Cyperus difformis; conditions: Flood
Excerpt: as §1

morningglory = assay: Test A pre-/postemergence greenhouse test; format: in vivo, Ipomoea spp.; conditions: for Plant response rating, Morningglory: 0 to 100 scale where 0 is no effect and 100 is complete control; for Morningglory plant response rating: 0 to 100 scale
Outline: as §2

corn = assay: Test A pre-/postemergence greenhouse test; format: in vivo, Zea mays; conditions: for Plant response rating, Corn: 0 to 100 scale where 0 is no effect and 100 is complete control; for Corn plant response rating: 0 to 100 scale
Outline: as §2

barnyardgrass [1] = assay: Test C flooded paddy test; format: in vivo, Echinochloa crus-galli; conditions: Flood
Excerpt: as §1

crabgrass = assay: Test A pre-/postemergence greenhouse test; format: in vivo, Digitaria sanguinalis; conditions: for Plant response rating, Crabgrass, Large: 0 to 100 scale where 0 is no effect and 100 is complete control; for Crabgrass, Large plant response rating: 0 to 100 scale
Outline: as §2

barnyardgrass [2] = assay: Test A pre-/postemergence greenhouse test; format: in vivo, Echinochloa crus-galli; conditions: for Plant response rating, Barnyardgrass: 0 to 100 scale where 0 is no effect and 100 is complete control; for Barnyardgrass plant response rating: 0 to 100 scale
Outline: as §2

[3] = 62 g ai/ha, scale 0 to 100 (0 no effect, 100 complete control)
[4] = 250 g ai/ha, scale 0 to 100, 0 no effect, 100 complete control, 13 to 15 days
[5] = Postemergence, 500 g ai/ha, 0 is no effect, 100 is complete control
[6] = Preemergence, 125 g ai/ha, 0 no effect, 100 complete control
[7] = Preemergence, 500 g ai/ha, 0 no effect, 100 complete control

Row | SMILES | Plant response rating, Ducksalad (duck salad; [3]) | Plant response rating, Ducksalad (duck salad; [4]) | Plant response rating, Rice (rice; [3]) | Plant response rating, Rice (rice; [4]) | Plant response rating, Foxtail, Giant (giant foxtail; Postemergence, 125 g ai/ha) | Foxtail, Giant plant response rating (giant foxtail; [5]) | Foxtail, Giant plant response rating (giant foxtail; [6]) | Plant response rating, Foxtail, Giant (giant foxtail; Preemergence, 500 g ai/ha) | Plant response rating, Wheat (wheat; Postemergence, 125 g ai/ha) | Wheat plant response rating (wheat; [5]) | Wheat plant response rating (wheat; [6]) | Plant response rating, Velvetleaf (velvetleaf; Postemergence, 125 g ai/ha) | Velvetleaf plant response rating (velvetleaf; [5]) | Velvetleaf plant response rating (velvetleaf; [6]) | Plant response rating, Pigweed (redroot pigweed; Postemergence, 125 g ai/ha) | Pigweed plant response rating (redroot pigweed; [5]) | Pigweed plant response rating (redroot pigweed; [6]) | Plant response rating, Pigweed (redroot pigweed; Preemergence, 500 g ai/ha) | Plant response rating, Sedge, Umbrella (umbrella sedge; [3]) | Plant response rating, Sedge, Umbrella (umbrella sedge; [4]) | also measured
1 | Cn1nc(C(F)(F)F)c(C[S+]([O-])c2cc(Cl)cc[n+]2[O-])c1OCC(F)(F)F (centres unmarked) [Compound 68] | 85 | 90 | 0 | 80 | 70 | 90 | 70 | 100 | 50 | 60 | 30 | 50 | 60 | 0 | 40 | 80 | 40 | 100 | 100 | 100 | Plant response rating, Wheat (wheat; Preemergence, 500 g ai/ha): 70; Plant response rating, Velvetleaf (velvetleaf; Preemergence, 500 g ai/ha): 60; Plant response rating, Morningglory (morningglory; Postemergence, 125 g ai/ha): 10; Morningglory plant response rating (morningglory; [5]): 70; Morningglory plant response rating (morningglory; [6]): 30; Plant response rating, Morningglory (morningglory; Preemergence, 500 g ai/ha): 80; Plant response rating, Corn (corn; Postemergence, 125 g ai/ha): 30; Corn plant response rating (corn; [5]): 70; Corn plant response rating (corn; [6]): 0; Plant response rating, Corn (corn; Preemergence, 500 g ai/ha): 70; Plant response rating, Barnyardgrass (barnyardgrass [1]; [3]): 0; Plant response rating, Barnyardgrass (barnyardgrass [1]; [4]): 20; Plant response rating, Crabgrass, Large (crabgrass; Postemergence, 125 g ai/ha): 50; Crabgrass, Large plant response rating (crabgrass; [5]): 90; Crabgrass, Large plant response rating (crabgrass; [6]): 40; Plant response rating, Crabgrass, Large (crabgrass; Preemergence, 500 g ai/ha): 100; Plant response rating, Barnyardgrass (barnyardgrass [2]; Postemergence, 125 g ai/ha): 50; Barnyardgrass plant response rating (barnyardgrass [2]; [5]): 80; Barnyardgrass plant response rating (barnyardgrass [2]; [6]): 30; Plant response rating, Barnyardgrass (barnyardgrass [2]; Preemergence, 500 g ai/ha): 100
2 | Cc1cc[n+]([O-])c(S(=O)(=O)Cc2c(C(F)(F)F)nn(C)c2OCC(F)(F)C(F)(F)F)c1 [Compound 98] | 0 | 0 | 0 | 0 | 20 | 80 | 50 | 100 | 0 | 0 | 0 | 0 | 40 | 0 | 0 | 20 | 20 | 60 | 0 | 0 | Wheat plant response rating (wheat; [7]): 20; Velvetleaf plant response rating (velvetleaf; [7]): 50; Plant response rating, Morningglory (morningglory; Postemergence, 125 g ai/ha): 10; Morningglory plant response rating (morningglory; [5]): 80; Morningglory plant response rating (morningglory; [6]): 0; Plant response rating, Morningglory (morningglory; Preemergence, 500 g ai/ha): 50; Plant response rating, Corn (corn; Postemergence, 125 g ai/ha): 30; Corn plant response rating (corn; [5]): 30; Corn plant response rating (corn; [6]): 0; Plant response rating, Corn (corn; Preemergence, 500 g ai/ha): 0; Plant response rating, Barnyardgrass (barnyardgrass [1]; [3]): 0; Plant response rating, Barnyardgrass (barnyardgrass [1]; [4]): 0; Plant response rating, Crabgrass, Large (crabgrass; Postemergence, 125 g ai/ha): 10; Crabgrass, Large plant response rating (crabgrass; [5]): 70; Crabgrass, Large plant response rating (crabgrass; [6]): 30; Plant response rating, Crabgrass, Large (crabgrass; Preemergence, 500 g ai/ha): 90; Plant response rating, Barnyardgrass (barnyardgrass [2]; Postemergence, 125 g ai/ha): 0; Barnyardgrass plant response rating (barnyardgrass [2]; [5]): 70; Barnyardgrass plant response rating (barnyardgrass [2]; [6]): 60; Plant response rating, Barnyardgrass (barnyardgrass [2]; Preemergence, 500 g ai/ha): 100
